Source: patent US11364231B2, “Methods of treating radiation induced gastrointestinal syndrome (RIGS) and related disease states using YEL002/BCN057” (priority 2017, dated 2022)
Entries after “also recorded” stand apart in the source; their conditions may differ.

How the values were obtained:
[1] = Solubility in aqueous formulations; assay type: physicochemical
Method: In another embodiment formulation for intravenous, subcutaneous and oral delivery of therapeutic levels of Yel002/BCN057 were developed comprising 30 wt % Captisol (SBE-beta-CD) and 100 mM MSA at pH 4.1 or higher (adjusted with 1.0 N NaOH).

[2] = system: C57B16 mice exposed to PBI (BM40); assay: Survival after partial body irradiation (PBI, BM40); assay type: in vivo; conditions: 14.5 Gy PBI (BM40), BCN057 at 24 hrs post PBI; untreated dead within 12 days
Source text: FIG. 1C. Kaplan Meier survival analysis of C57B16 mice (n=25/group) exposed to PBI (BM40). Head & Neck and upper extremities were shielded to spare 40% of bone marrow.
Unless there has been a very focal radiation exposure there will also be involvement of many other organ systems, and their differential responses to various doses of irradiation will impact the gastrointestinal acute radiation syndrome (GI-ARS) dose response. All radiation doses inducing GI-ARS will have a major impact on the bone marrow, which in turn will affect the levels of intestinal inflammation and ability of the body to manage the infection resulting from bacterial translocation through an impaired intestinal mucosal barrier. To investigate involvement of bone marrow in survival outcome upon BCN057 treatment, C57B16 mice were exposed to partial body irradiation (PBI) where 40% of total bone marrow was […] to irradiation after shielding head and fore limbs. Treatment with BCN057 at 24 hrs post exposure of 14.5 Gy PBI rescued 70% of mice from radiation lethality (p<0.0001). However, all the untreated mice were dead within 12 days post-exposure (FIG. 1C).

[3] = system: intestinal crypt organoids from Lgr5/EGFP-IRES-Cre-ERT2 knock in mice; assay: Ex vivo irradiated mouse intestinal crypt organoids; assay type: cell-based
Source text: To analyze the effect of BCN057 on ISC population, an ex vivo primary intestinal culture system exposed to graded doses of irradiation was developed. Intestinal crypt isolated from Lgr5/EGFP-IRES-Cre-ERT2 knock in mice to allow the visualization of the ISCs. At a dose level of 8 Gy most of the Lgr5+ve ISCs had disappeared within 48 hrs resulting significant loss of budding crypt with changes in existing crypt morphology indicating inhibition of ISC growth and differentiation in response to radiation exposure. […] A representative microscopic image of effect of BCN057 on budding crypt having Lgr5+ve ISCs (GFP+ve cells indicated with arrow) is shown in FIG. 10.
Small intestine from Lgr5-GFP mice, or their littermates control mice was used for crypt isolation and development of ex vivo organoid culture. The tissue was scraped for removing villi and chopped into˜5 mm pieces. Then tissue was washed with cold PBS, and incubated in dissociation buffer for 20 mins in rotor at room temperature. The tissue fragments were suspended vigorously with a 10-ml pipette in cold 0.1% BSA in PBS, yielding supernatants enriched in epithelial cells. […] The number of organoids per well was counted on microscopic images. […] Total number of crypt structures and number of budding crypts were counted and expressed as a ratio of budding crypts/total crypt structure.

[4] = system: human colonic organoid developed from non-malignant tissue; assay: Irradiated human colonic organoids from non-malignant tissue; assay type: cell-based
Method: FIG. 13. […] Note presence of budding crypt like structure in BCN057 treated group.
To examine the effect of BCN057 on human intestinal, epithelial tissue surgical specimen collected from normal colon at least 10 cm apart from malignant site was used to develop ex vivo crypt organoid. At a dose level of 8 Gy all the budding crypts have been disappeared in the organoids. […] The effect of BCN057 on mRNA level of β-catenin target genes in organoids was also evaluated.

[5] = system: Lgr5+ve ISC in Lgr5/GFP-IRES-Cre-ERT2 knock-in mice; assay: Lgr5+ve ISC survival in vivo after AIR; conditions: 15 Gy AIR then BCN057; beyond 48 hrs post AIR, p<0.001
Source text: To study this effect in vivo, the role of BCN057 in ISC survival was examined by exposing Lgr5/GFP-IRES-Cre-ERT2 knock-in mice to 15 Gy to AIR and then treated with BCN057. Lgr5+ve ISC had disappeared from crypt base within 48 hrs post AIR in untreated mice.

[6] = system: MC38 colon tumor; assay: MC38 colon tumor in the flank with AIR; assay type: in vivo, mice
Source text: FIG. 18. […] I) Schematic diagram of BCN057 treatment in C57B16 mice having MC38 colon tumor in the flank. Mice were exposed to AIR (15Gy) and then treated with BCN057 at 24 hrs post exposure. Ii) Representative image of C57B16 mice having MC38 colon tumor in the flank. Note reduction in tumor size in irradiated or un-irradiated tumor treated with BCN057 at day 20 post AIR. Mice exposed to AIR without BCN057 treatment are not part of this image as they died within day 15 post AIR.
Subcutaneous tumors were developed by injecting MC38 colon cancer cell in the flank. Mice with palpable, subcutaneous tumor were treated with AIR (16Gy) followed by eight doses of BCN057. AIR reduced the tumor growth but invariably produced 100% mortality of animals with a median survival time of 14+2 days.
Mice were injected subcutaneously with 1×105 MC38 (colon carcinoma cell line) cells on the flank, respectively. About 10 days later, the tumor became palpable (3-5 mm in diameter), whereupon abdominal irradiation 16 Gy was delivered. Mice were divided into 4 groups (n=10/group) receiving no treatment, AIR, BCN057 and BCN057 plus AIR. Animals received BCN057 eight times starting 24 hrs after AIR. Tumor measurements were performed thrice weekly using Vernier calipers along with simultaneous physical assessment of signs of systemic toxicity (malaise and diarrhea).

COc1ccc2cc(-c3nc4ccc(C)cn4c3NCc3ccco3)c(=O)[nH]c2c1 [BCN057, 3-(3((furan-2-ylmethyl)ammo)-6-methylimidazo[1,2-a]pyridine-2-yl)-6-methoxyquinolin-2(1H)-one]
solubility ([1]; 30 wt % Captisol (SBE-beta-CD) and 100 mM MSA, at up to pH 4.1 or higher): excellent solubility | solubility in aqueous solution ([1]; physiologically compatible pHs, 100 mM MSA/10% PVP, 100 mM MSA/2% benzyl alcohol/2% NMP, 100 mM MSA/10% ethanol/1% Poloxamer 188): solubalized | survival [2]: 70% | organoid growth / ratio of budding crypt to total crypt ([3]; 8 Gy, BCN057 10 uM at 1 hr after irradiation): restored the number of budding crypts to un-irradiated levels; also recorded: improved the organoid growth | Lgr5+ve ISCs in organoids ([3]; 8Gy, BCN057 treated vs irradiated control): recused Lgr5+ve ISCs; also recorded: increases the presence of Lgr5+ve cells | budding crypts / organoid structure ([4]; 8Gy, BCN057 (20 ug/ml) at 1 hr post irradiation, 72 hrs): complete restitution of organoid structure; also recorded: rescued the organoids from radiation toxicity | Ki67 staining in budding crypt like structure ([4]; 8Gy, BCN057 treated organoids): positive staining | ratio of budding crypt to total number of crypts ([4]; irradiated organoids 4Gy and 8Gy, vs untreated irradiated control): increased | Lgr5+ve ISC in jejunal crypts [5]: significant preservation; also recorded: presence of GFP+ve Lgr5+ve ISCs | mice surviving beyond 30 days ([6]; AIR (16Gy) followed by eight doses of BCN057, AIR alone 100% mortality, n=10): 75% | tumor growth ([6]; AIR + BCN057 vs un-irradiated untreated control): significant tumor growth retardation; also recorded: significant reduction of tumor growth | tumor growth ([6]; BCN057 in un-irradiated mice vs un-irradiated untreated control): reduces the tumor growth | survival time ([6]; BCN057 post AIR vs AIR alone): significant improvement in survival time
